Where two headings read alike, the source gives them in different places.
Assays:
[1] = test system: edema induced by formalin; experiment: Anti-inflammatory activity, formalin-induced edema; assay type: in vivo, rat; details: po; for inhibition in vivo at 500 mg/kg: read-out: % inhibition of edema induced by formalin
[2] = test system: spasm by histamine; experiment: Antispasmodic activity in vitro, spasm by histamine
[3] = Analgesic activity, hot plate test; assay type: in vivo, mouse; details: po, read-out: Analgesic activity, increase of reaction time %
[4] = in vivo; details: mouse, in vivo, po
[5] = test system: spasm by acetylcholine; experiment: Antispasmodic activity in vitro, spasm by acetylcholine
[6] = test system: capillary permeability; details: 500 mg/kg p.o. mouse
[7] = Antipyretic activity; assay type: in vivo, rat; details: for Antipyretic activity (potency in comparison with aspirin = 100): 400 mg/kg p.o. rat; for Antipyretic action (in words): rat, in vivo
[8] = test system: edema induced by dextran; experiment: Anti-inflammatory activity, dextran-induced edema; assay type: in vivo, rat; details: po; for inhibition in vivo at 500 mg/kg: read-out: % inhibition of edema induced by dextran
[9] = Analgesic activity, protection from writhing; assay type: in vivo, mouse; details: po, read-out: Analgesic activity, protection from writhing %
[10] = test system: granuloma; experiment: Granuloma cotton pellet test; details: for inhibition in vivo at 200 mg/kg: Rattus norvegicus, po, read-out: % inhibition of granuloma
[11] = test system: edema induced by carrageenan; experiment: Anti-inflammatory activity, carrageenin-induced oedema; assay type: in vivo, rat; details: for inhibition in vivo at 500 mg/kg: po, read-out: % inhibition of edema induced by carrageenan
Description: Beginning, therefore, with D-glucose, we have prepared 1,2:5,6-di-O-isopropylidene-α-D-glucofuranose (II): [drawing 2] as well as 1,2-O-isopropylidene-α-D-glucofuranose and 1,2-O-isopropylidene-3,5,6-tri-O-benzyl-α-D-glucofuranose (1; Glen W. L., Myers G. S., Grant G. A., J. Chem. Soc., 2568/1951; (2) Meyer A. S., Reichstein T., Helv. Chim. Acta, 29, 139/1946; (3) Huber G., Rossi A., Helv. Chim. Acta, 51, 1185/1968) and have compared these compounds with (I) for anti-inflammatory activity against carrageenin-induced oedema (500 mg/kg, p.o. in rats).

[12] = test system: mouse; experiment: in vivo; details: oral route, even at a dose of 4,000 mg./kg.
[13] = test system: capillary permeability; experiment: Capillary permeability test
[14] = background; cited from earlier work
[15] = Analgesic action (overall); details: mouse, in vivo
[16] = test system: edema induced by carrageenan; experiment: Anti-inflammatory activity, carrageenin-induced oedema; assay type: in vivo; details: po; at a dose of 200 mg/kg p.o., rat (footnote e)
[17] = test system: spasms induced by histamine and acetylcholine; experiment: Antispasmodic activity tests in vitro (overall)
[18] = test system: oedema induced by carrageenin, dextran and formalin; experiment: Anti-inflammatory activity tests (oedema by carrageenin, dextran and formalin); assay type: in vivo; details: rat
[19] = Preliminary pharmacological screening (overall); assay type: in vivo
[20] = 500 mg/kg p.o. mouse, hot plate test
[21] = at a dose of 200 mg/kg p.o., rat (footnote e)
[22] = at a dose of 400 mg/kg p.o., mouse (footnote d)

CC1(C)OCC(C2OC3OC(C)(C)OC3C2O)O1 (stereo not drawn)
inhibition in vivo at 500 mg/kg ([1]; Rattus norvegicus): 19% | Antispasmodic activity in vitro, ED50, inhib. of spasm by histamine [2]: > 100 µg/mL | change in vivo at 500 mg/kg ([3]; Mus musculus): 0% | LD50 [4]: 4000 mg/kg | Antispasmodic activity in vitro, ED50, inhib. of spasm by acetylcholine [5]: > 100 µg/mL | Capillary permeability, decrease % [6]: 46% | Antipyretic activity (potency in comparison with aspirin = 100) [7]: 63% | Antipyretic action (in words) [7]: present | inhibition in vivo at 500 mg/kg ([8]; Rattus norvegicus): 0% | inhibition in vivo at 500 mg/kg ([9]; Mus musculus): 20% | inhibition in vivo at 200 mg/kg [10]: 0% | inhibition in vivo at 500 mg/kg ([11]; Rattus norvegicus): 33% | Anti-inflammatory activity compared with (I), preliminary tests ([11]; carrageenin-induced oedema, 500 mg/kg, p.o. in rats): fully comparable with that of (I)

CC(=O)OC1C(C2COC(C)(C)O2)OC2OC(C)(C)OC21 [XII, 3-Acetyl-1,2:5,6-di-O-isopropylidene-α-D-glucofuranose]
inhibition in vivo at 500 mg/kg ([1]; 500 mg/kg p.o. rat): 9% | Antispasmodic activity in vitro, ED50, inhib. of spasm by histamine [2]: > 100 µg/mL | change in vivo at 500 mg/kg [3, 20]: 20% | LD50 [4]: > 4000 mg/kg | Oral toxicity / tolerance (in words) [12]: well tolerated | Antispasmodic activity in vitro, ED50, inhib. of spasm by acetylcholine [5]: > 100 µg/mL | Antipyretic activity (potency in comparison with aspirin = 100) [7]: 0% | inhibition in vivo at 500 mg/kg ([8]; 500 mg/kg p.o. rat): 0% | inhibition in vivo at 500 mg/kg ([9]; 500 mg/kg p.o. mouse): 0% | inhibition in vivo at 500 mg/kg ([11]; 500 mg/kg p.o. rat): 21% | Capillary permeability, decrease % ([13]; 500 mg/kg p.o. mouse): 26%

CCOC1O[C@H]([C@@H](COCc2ccccc2)OCc2ccccc2)[C@H](OCc2ccccc2)[C@H]1O (stereo partly drawn) [I, ethyl 3,5,6-tri-O-benzyl-D-glucofuranoside, reference compound]
Known pharmacological activity (in words) [14]: anti-inflammatory and anti-allergic activity | inhibition in vivo at 500 mg/kg ([1]; 500 mg/kg p.o. rat): 14% | Antispasmodic activity in vitro, ED50, inhib. of spasm by histamine [2]: 20 µg/mL | change in vivo at 500 mg/kg [3, 20]: 10% | LD50 [4]: > 4000 mg/kg | Oral toxicity / tolerance (in words) [12]: well tolerated | Antispasmodic activity in vitro, ED50, inhib. of spasm by acetylcholine [5]: 30 µg/mL | Antipyretic activity (potency in comparison with aspirin = 100) [7]: 9% | Antipyretic action (in words) [7]: little or no activity | inhibition in vivo at 500 mg/kg ([8]; 500 mg/kg p.o. rat): 0% | inhibition in vivo at 500 mg/kg ([9]; 500 mg/kg p.o. mouse): 0% | inhibition in vivo at 200 mg/kg [10]: 0% | Analgesic action (in words) [15]: moderate or nil | inhibition in vivo at 500 mg/kg ([11]; 500 mg/kg p.o. rat): 20% | Capillary permeability, decrease % ([13]; 500 mg/kg p.o. mouse): 48%

CCCCCCCCCCCCCCCCOC1C(C2COC(C)(C)O2)OC2OC(C)(C)OC21 (stereo not drawn) [VIII]
inhibition in vivo at 500 mg/kg ([1]; 500 mg/kg p.o. rat): 0% | change in vivo at 500 mg/kg [3, 20]: 0% | LD50 [4]: > 4000 mg/kg | Oral toxicity / tolerance (in words) [12]: well tolerated | Antipyretic activity (potency in comparison with aspirin = 100) [7]: 0% | inhibition in vivo at 500 mg/kg ([8]; 500 mg/kg p.o. rat): 0% | inhibition in vivo at 500 mg/kg ([9]; 500 mg/kg p.o. mouse): 20% | inhibition in vivo at 500 mg/kg ([11]; 500 mg/kg p.o. rat): 13% | Capillary permeability, decrease % ([13]; 500 mg/kg p.o. mouse): 22%

CCCCC1C(=O)N(c2ccccc2)N(c2ccccc2)C1=O [Phenylbutazone, reference compound]
inhibition in vivo at 200 mg/kg [1, 21]: 13% | Antispasmodic activity in vitro, ED50, inhib. of spasm by histamine [2]: > 100 µg/mL | change in vivo at 500 mg/kg [3, 20]: 10% | inhibition in vivo at 200 mg/kg [16]: 52% | Antispasmodic activity in vitro, ED50, inhib. of spasm by acetylcholine [5]: > 100 µg/mL | Antipyretic activity (potency in comparison with aspirin = 100) [7]: 85% | inhibition in vivo at 200 mg/kg [8, 21]: 15% | Antispasmodic activity (in words) [17]: inactive | inhibition in vivo at 500 mg/kg ([9]; 500 mg/kg p.o. mouse): 100% | inhibition in vivo at 200 mg/kg [10]: 31% | Capillary permeability, decrease % [13, 22]: 75%

C=CCOC1C(C2COC(C)(C)O2)OC2OC(C)(C)OC21 [IX, 3-O-allyl-1,2:5,6-di-O-isopropylidene-α-D-glucofuranose]
inhibition in vivo at 500 mg/kg ([1]; 500 mg/kg p.o. rat): 29% | Antispasmodic activity in vitro, ED50, inhib. of spasm by histamine [2]: 60 µg/mL | change in vivo at 500 mg/kg [3, 20]: 0% | LD50 [4]: > 4000 mg/kg | Oral toxicity / tolerance (in words) [12]: well tolerated | Anti-inflammatory potency compared with aspirin and phenylbutazone (in words) [18]: as potent as or more potent than aspirin and phenylbutazone | Inhibition of oedema induced by carrageenin, dextran and formalin, compared with (I) (in words) [18]: clearly more active than (I) | Activity against spasms produced by acetylcholine (in words) [5]: moderately active | Antispasmodic activity in vitro, ED50, inhib. of spasm by acetylcholine [5]: 60 µg/mL | Antipyretic activity (potency in comparison with aspirin = 100) [7]: 44% | Antipyretic action (in words) [7]: retained | inhibition in vivo at 500 mg/kg ([8]; 500 mg/kg p.o. rat): 39% | Spectrum and potency of action in comparison with (I) (in words) [19]: analogous or even better spectrum and potency of action | inhibition in vivo at 500 mg/kg ([9]; 500 mg/kg p.o. mouse): 20% | inhibition in vivo at 200 mg/kg [10]: 16% | Inhibitory activity in the granuloma cotton pellet test (in words) ([10]; rat, in vivo): some inhibitory activity | inhibition in vivo at 500 mg/kg ([11]; 500 mg/kg p.o. rat): 68% | Capillary permeability, decrease % ([13]; 500 mg/kg p.o. mouse): 43%

CC(=O)Oc1ccccc1C(=O)O [Aspirin, reference compound]
inhibition in vivo at 500 mg/kg ([1]; 500 mg/kg p.o. rat): 29% | Antispasmodic activity in vitro, ED50, inhib. of spasm by histamine [2]: > 100 µg/mL | change in vivo at 500 mg/kg [3, 20]: 70% | LD50 [4]: 1000 mg/kg | Antispasmodic activity in vitro, ED50, inhib. of spasm by acetylcholine [5]: > 100 µg/mL | inhibition in vivo at 500 mg/kg ([8]; 500 mg/kg p.o. rat): 47% | Antispasmodic activity (in words) [17]: inactive | inhibition in vivo at 500 mg/kg ([9]; 500 mg/kg p.o. mouse): 100% | inhibition in vivo at 200 mg/kg [10]: 12% | inhibition in vivo at 500 mg/kg ([11]; 500 mg/kg p.o. rat): 53% | Capillary permeability, decrease % [13, 22]: 73%

CC1(C)OCC(C2OC3OC(C)(C)OC3C2OCc2ccccc2)O1 (stereo not drawn) [XI]
inhibition in vivo at 500 mg/kg ([1]; 500 mg/kg p.o. rat): 21% | Antispasmodic activity in vitro, ED50, inhib. of spasm by histamine [2]: > 100 µg/mL | change in vivo at 500 mg/kg [3, 20]: 0% | LD50 [4]: > 4000 mg/kg | Oral toxicity / tolerance (in words) [12]: well tolerated | Antispasmodic activity in vitro, ED50, inhib. of spasm by acetylcholine [5]: > 100 µg/mL | Antipyretic activity (potency in comparison with aspirin = 100) [7]: 8% | inhibition in vivo at 500 mg/kg ([8]; 500 mg/kg p.o. rat): 0% | inhibition in vivo at 500 mg/kg ([9]; 500 mg/kg p.o. mouse): 20% | inhibition in vivo at 500 mg/kg ([11]; 500 mg/kg p.o. rat): 39% | Capillary permeability, decrease % ([13]; 500 mg/kg p.o. mouse): 29%

— patent US4251520A, “Glucofuranose derivatives” (priority 1976, dated 1981)
